{"source": "patent US6331547A", "about": "“Water soluble SDZ RAD esters” (American Home Products Corporation, priority 2000, dated 2001)", "key": {"U87MG Human Glioblastoma": {"tested_on": "U87MG Human Glioblastoma", "test": "U87MG human glioblastoma 3H thymidine incorporation", "format": "cell-based", "procedure": "U87MG Human Glioblastoma (ATCC # HTB-14)\n3H Thymidine Incorporation Protocol\nBRL Minimum Essential Medium with Earle Salts (500 ml)\n+5 mLBRL MEM Non-Essential Amino Acids (10 mM)\n+5 mLBRL Penicillin-Streptomycin\n+5 mLBRL Na Pyruvate Solution (100 mM)\n+5 mLBRL L-Glutamine 200 mM\n+50 mLBRL Fetal Bovine Serum (Qualified)\n1. Cells were trypsinized and plated at a concentration of 10^4 cells/well in a final volume of 200 μl growth medium in 96-well flat bottom plates and allowed to adhere for 24 hours at 37° C.\n2. The media was removed by aspiration with care to not disturb the cell monolayer. 200 μl of fresh growth media was added per well, allowing enough wells for samples to be run in triplicate. Compounds were added in 10 μl PBS solutions and incubated for another 48 hours at 37° C.\n3. During the last 5 hours of incubation, plates were labeled with 1 μCi 3H thymidine per well. (NEN thymidine, catalog # NET-027, 6.7 Ci/mmole). The 1 μCi was added in 10 μl of PBS (on the day of harvest.). The plates were returned to the incubator for the last 5 hours.\n4. The radioactive media was removed by aspiration, with care not to disturb the cell monolayer. 50 μl of BRL 10×Trypsin was added to each well, followed by incubation at 37° C. for 10 minutes or until the monolayer was loosened from the well bottom. […] Mats were counted in a Wallac Betaplate counter."}, "[1]": {"details": "U.S. Pat. No. 5,665,772; cited from earlier work"}, "Candida albicans": {"tested_on": "Candida albicans", "details": "particularly against Candida albicans, both in vitro and in vivo; cited from earlier work"}, "[2]": {"details": "alone; U.S. Pat. No. 4,885,171; cited from earlier work"}, "[3]": {"tested_on": "experimental allergic encephalomyelitis model", "details": "model for multiple sclerosis; cited from earlier work"}, "adjuvant arthritis model": {"tested_on": "adjuvant arthritis model", "details": "model for rheumatoid arthritis; cited from earlier work"}, "IgE-like antibodies": {"tested_on": "IgE-like antibodies", "details": "in vivo; cited from earlier work"}}}
{"smiles": "CO[C@H]1C[C@@H]2CC[C@@H](C)[C@@](O)(O2)C(=O)C(=O)N2CCCC[C@H]2C(=O)O[C@H]([C@H](C)C[C@@H]2CC[C@@H](OCCO)[C@H](OC)C2)CC(=O)[C@H](C)/C=C(\\C)[C@@H](O)[C@@H](OC)C(=O)[C@H](C)C[C@H](C)/C=C/C=C/C=C/1C", "note": "[SDZ-RAD, 40-O-(2-hydroxy)ethyl-rapamycin]", "values": [{"measurement": "IC50", "setting": "U87MG Human Glioblastoma; 3H thymidine incorporation, 48 hours incubation, 37° C., U87MG", "value": 2.0, "unit": "ng/mL"}, {"measurement": "immunosuppressive activity in animal model", "setting": "[1]", "value": "has immunosuppressive activity"}]}
{"smiles": "CO[C@H]1C[C@@H]2CC[C@@H](C)[C@@](O)(O2)C(=O)C(=O)N2CCCC[C@H]2C(=O)O[C@H]([C@H](C)C[C@@H]2CC[C@@H](O)[C@H](OC)C2)CC(=O)[C@H](C)/C=C(\\C)[C@@H](O)[C@@H](OC)C(=O)[C@H](C)C[C@H](C)/C=C/C=C/C=C/1C", "note": "[Rapamycin]", "values": [{"measurement": "IC50", "setting": "U87MG Human Glioblastoma; Homo sapiens, U-87 MG", "value": 0.5, "unit": "ng/mL"}, {"measurement": "antifungal activity", "setting": "Candida albicans", "value": "found to have antifungal activity"}, {"measurement": "antitumor activity", "setting": "[2]", "value": "shown to have antitumor activity"}, {"measurement": "effect in the experimental allergic encephalomyelitis model", "setting": "[3]", "value": "effective"}, {"measurement": "effect in the adjuvant arthritis model", "setting": "adjuvant arthritis model", "value": "effective"}, {"measurement": "inhibition of the formation of IgE-like antibodies", "setting": "IgE-like antibodies", "value": "effectively inhibited"}]}
